In brackets after ≈: the same amount, converted by molar mass.

Broadly, the IC50 is the midpoint of a concentration-inhibition curve. Higher therefore signals weaker potency.

In the experiment the test system is HCT116 cell line (colorectal cancer). Put plainly: Anti-proliferative activity assay (WST-8, 4 days). It counts as cell-based. The settings on record: Homo sapiens, HCT-116, 96 h; in vitro growth of HCT116 cells, 4 days incubation, WST-8 readout. The protocol:
A single suspension of tumor cells was inoculated to the serially diluted 96-well microtestplate. Then the testplate was incubated in the 5% CO2 ambience at 37° C. for 4 days (2-3×10^3 cells/well). The degree of cell growth in a monolayer was measured by using WST-8 (Dojindo, Japan). IC50 values of the polycyclic compounds concerned against tumor cells were calculated as the concentration of drug yielding 50% OD of the control growth. The IC50 value measures the drug concentration for 50% inhibition of the growth of tumor cells in vitro as compared to the control.
The anti-tumor activity of polycyclic compounds of the formula [I] against in vitro growth of HCT116 cell line (colorectal cancer) is summarized in Table 1.
In general terms: Tetrazolium dyes change colour on reduction, which living cells bring about.
The compound `CN(C)CCNc1nc2cc(O)ccc2c2c1C(=O)c1cnccc1-2` [Example 41, 6-(2-dimethylamino-ethylamino)-3-hydroxy-5,9-diaza-benzo[c]fluoren-7-one] came in with an IC50 of 0.35 ng/mL (≈ 0.00105 µM).

The compound `Cc1c(O)ccc2c3c(c(NCCN(C)C)nc12)C(=O)c1ccncc1-3` [Example 45, 6-(2-dimethylamino-ethylamino)-3-hydroxy-4-methyl-5,10-diaza-benzo[c]fluoren-7-one] returned an IC50 of 3.9 ng/mL (≈ 0.0112 µM).

The compound `Cc1c(O)ccc2c3c(c(NCCN(C)C)nc12)C(=O)c1cnccc1-3` [Example 46, 6-(2-dimethylamino-ethylamino)-3-hydroxy-4-methyl-5,9-diaza-benzo[c]fluoren-7-one] yielded an IC50 of 2.2 ng/mL (≈ 0.00631 µM).

`Cc1cc2c(cn1)-c1c(c(NCCN(C)C)nc3cc(O)ccc13)C2=O` [Example 47, 6-(2-dimethylamino-ethylamino)-3-hydroxy-9-methyl-5,10-diaza-benzo[c]fluoren-7-one] showed an IC50 of 3.9 ng/mL (≈ 0.0112 µM).

The compound `CN(C)CCNc1nc2cc(O)ccc2c2c1C(=O)c1ccccc1-2` [Reference compound, 6-(2-dimethylamino-ethylamino)-3-hydroxy-7H-indeno[2,1-c]quinolin-7-one, reference compound] showed an IC50 of 12 ng/mL (≈ 0.036 µM).

(Values after patent US6680326B2, “Polycyclic compounds” (Hoffmann-La Roche Inc., priority 2001, dated 2004).)
